Measured values as given in the supplement of paper PMC10307832.

Experiments:
Assay in all cases: relative viability (nuclei count vs DMSO), 5 days (fraction); higher = more cells survive
Vemurafenib + Vorinostat = compound: CCCS(=O)(=O)Nc1ccc(F)c(C(=O)c2c[nH]c3ncc(-c4ccc(Cl)cc4)cc23)c1F [Vemurafenib] + O=C(CCCCCCC(=O)Nc1ccccc1)NO [Vorinostat] (partner 1 µM)
How it was run: (§1)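 A single step with final 0.05% Triton X-100, 1% formaldehyde and 1 ug/ml Hoechst fixed the cells and stained nuclei 5 days after treatment. Lung cancer cell lines in 1536-well plates had been treated by pin tool the day after seeding with one drug alone or a fixed anchor-drug dose plus five library-drug doses (not always all listed) in √10 steps, and nuclei were counted on 4× images. Relative viability is the ratio of nuclei in treated wells to nuclei in vehicle wells, taken as the median of duplicate plates.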

OSI-027 + Dasatinib = compound: COc1cccc2cc(-c3nc([C@H]4CC[C@H](C(=O)O)CC4)n4ncnc(N)c34)[nH]c12 [OSI-027] + Cc1nc(Nc2ncc(C(=O)Nc3c(C)cccc3Cl)s2)cc(N2CCN(CCO)CC2)n1 [Dasatinib] (partner 0.075 µM)
How it was run: as §1

OSI-027 + Decitabine = compound: COc1cccc2cc(-c3nc([C@H]4CC[C@H](C(=O)O)CC4)n4ncnc(N)c34)[nH]c12 [OSI-027] + Nc1ncn([C@H]2C[C@H](O)[C@@H](CO)O2)c(=O)n1 [Decitabine] (partner 2 µM)
How it was run: as §1

Alpelisib + AZD7762 = compound: Cc1nc(NC(=O)N2CCC[C@H]2C(N)=O)sc1-c1ccnc(C(C)(C)C(F)(F)F)c1 [Alpelisib] + NC(=O)Nc1cc(-c2cccc(F)c2)sc1C(=O)N[C@H]1CCCNC1 [AZD7762] (partner 0.2 µM)
How it was run: as §1

Cell Line | relative viability (Vemurafenib + Vorinostat; first compound 0.03162 µM) | relative viability (Vemurafenib + Vorinostat; first compound 0.1 µM) | relative viability (Vemurafenib + Vorinostat; first compound 0.3162 µM) | relative viability (Vemurafenib + Vorinostat; first compound 1 µM) | relative viability (OSI-027 + Dasatinib; first compound 0.01 µM) | relative viability (OSI-027 + Dasatinib; first compound 0.03162 µM) | relative viability (OSI-027 + Dasatinib; first compound 0.1 µM) | relative viability (OSI-027 + Dasatinib; first compound 0.3162 µM) | relative viability (OSI-027 + Dasatinib; first compound 1 µM) | relative viability (OSI-027 + Decitabine; first compound 0.01 µM) | relative viability (OSI-027 + Decitabine; first compound 0.03162 µM) | relative viability (OSI-027 + Decitabine; first compound 0.1 µM) | relative viability (OSI-027 + Decitabine; first compound 0.3162 µM) | relative viability (OSI-027 + Decitabine; first compound 1 µM) | relative viability (Alpelisib + AZD7762; first compound 0.04 µM) | relative viability (Alpelisib + AZD7762; first compound 0.1265 µM) | relative viability (Alpelisib + AZD7762; first compound 0.4 µM) | relative viability (Alpelisib + AZD7762; first compound 1.265 µM) | relative viability (Alpelisib + AZD7762; first compound 4 µM)
NCI-H2126 | 0.761 | 0.576 | 0.869 | 0.633 | 0.562 | 0.56 | 0.504 | 0.374 | 0.45 | 0.558 | 0.553 | 0.565 | 0.523 | 0.601 | 0.998 | 1.01 | 0.945 | 0.904 | 0.769
NCI-H2170 | 0.733 |  | 0.737 | 0.754 | 0.635 | 0.506 | 0.506 | 0.56 | 0.315 | 0.459 | 0.491 | 0.463 | 0.421 | 0.31 | 0.865 | 0.712 | 0.891 | 0.632 | 0.481
NCI-H2342 | 0.623 | 0.785 | 0.755 | 0.787 | 0.316 | 0.278 | 0.314 | 0.296 | 0.316 | 0.793 | 0.687 | 0.68 | 0.662 | 0.603 | 0.477 | 0.421 | 0.506 | 0.497 | 0.426
NCI-H2347 | 0.542 | 0.539 | 0.52 | 0.624 | 0.281 | 0.379 | 0.205 | 0.22 | 0.268 | 0.639 | 0.635 | 0.621 | 0.577 | 0.454 | 0.756 | 0.661 | 0.815 | 0.81 | 0.764
NCI-H2405 | 0.911 | 0.987 |  | 1.03 | 0.2 | 0.204 | 0.185 | 0.209 | 0.178 | 0.688 | 0.74 | 0.709 | 0.634 | 0.451 | 0.763 | 0.728 | 0.686 | 0.446 | 0.428
